Values quoted from earlier work in patent US9308174B2, “Lyophilized formulations of bendamustine hydrochloride” (CHEMI S.P.A., priority 2013, dated 2016).
Like-named read-outs stand apart in the source and are kept apart here.

Experiments:
[1] = water, 5° C.

For `Cl.Cn1c(CCCC(=O)O)nc2cc(N(CCCl)CCCl)ccc21` [bendamustine hydrochloride, Bendamustine hydrochloride], the HP1 percentage ([1]; after 3 hours) is listed as 0.86%, the HP1 percentage ([1]; after 6 hours) is listed as 3.81% and the “appearance of the solution” value ([1]; after 6 hours) is listed as “formation of a precipitate”. The HP1 percentage ([1]; time=0) was 0.6%, the “time to 10% degradation of the active ingredient” value (aqueous solution 0.25 mg/ml, room temperature) was 4.2 h and the “time to lose 10% of its title (t90)” value (solution at 4° C.) was 119.5 h. For the same compound, the “time to lose 10% of its title (t90)” value (solution at 23° C.) was 9.2 h.
